Source: patent US6559151B2, “6-(2-trifluoromethyl-phenyl)-triazolopyrimidines” (BASF Aktiengesellschaft, priority 2000, dated 2003)
≈ marks a conversion by molar mass, not a printed value.

Experiments:
Assay type in all cases: cell-based
[1] = tested on: Magnaporthe grisea f. sp. Oryzae; settings: total inhibition of mycelial growth; V8 juice medium; 6-12 days at 18-25° C.; visual
Rhizoctonia solani = assay: In vitro fungicidal activity against Rhizoctonia solani (mycelial growth inhibition rating); design: key: 0: None; 3: slight; 5: moderate; 7: severe; 9: complete; settings: 25 ppm; 24-cell-well plates; 3-7 days of incubation
Method: C Evaluation of In vitro Fungicidal Activity against Rhizoctonia solani Test compounds are dissolved in acetone to give a concentration of 25 ppm and added to individual cell walls (24-cell-well-plates, Corning), which were previously filled with a suspension of ground fungal mycelium in a chemically defined growth medium. After 3-7 days of incubation, inhibition of mycelial growth is recorded using the following scale: The data obtained are shown in Table IV. Rating scale [table]

Alternaria solani = assay: MIC serial dilution test, Alternaria solani; settings: V8 juice medium, 6-12 days at 18-25° C., visual
Botrytis cinerea = assay: MIC serial dilution test, Botrytis cinerea; settings: V8 juice medium, 6-12 days at 18-25° C., visual
Cochliobulus sativus = assay: MIC serial dilution test, Cochliobulus sativus; settings: V8 juice medium, 6-12 days at 18-25° C., visual

## CC(C)Nc1c(-c2cc(F)ccc2C(F)(F)F)c(Cl)nc2ncnn12 [Compound I-1, [5-chloro-6-(5-fluoro-2-trifluoromethyl-phenyl)-[1,2,4]triazolo[1,5-α]pyrimidin-7-yl]-isopropyl-amine]
[1]
  MIC (Minimum Inhibitory Concentration) PYRIOR: 1.56 µg/mL (≈ 4.17 µM)
Rhizoctonia solani
  Rating (inhibition of mycelial growth): 7
Alternaria solani
  MIC (Minimum Inhibitory Concentration) ALTEBO: 100 µg/mL (≈ 268 µM)
Botrytis cinerea
  MIC (Minimum Inhibitory Concentration) BOTRCI: 50 µg/mL (≈ 134 µM)
Cochliobulus sativus
  MIC (Minimum Inhibitory Concentration) COCHSA: 25 µg/mL (≈ 66.9 µM)

## Fc1ccc(C(F)(F)F)c(-c2c(Cl)nc3ncnn3c2NC2CCCC2)c1 [Compound I-2, [5-chloro-6-(5-fluoro-2-trifluoromethyl-phenyl)-[1,2,4]triazolo[1,5-α]pyrimidin-7-yl]-cyclopentyl-amine]
[1]
  MIC (Minimum Inhibitory Concentration) PYRIOR: 0.78 µg/mL (≈ 1.95 µM)
Rhizoctonia solani
  Rating (inhibition of mycelial growth): 7
Alternaria solani
  MIC (Minimum Inhibitory Concentration) ALTEBO: 3.13 µg/mL (≈ 7.83 µM)
Botrytis cinerea
  MIC (Minimum Inhibitory Concentration) BOTRCI: 25 µg/mL (≈ 62.5 µM)
Cochliobulus sativus
  MIC (Minimum Inhibitory Concentration) COCHSA: 3.13 µg/mL (≈ 7.83 µM)

## Fc1ccc(C(F)(F)F)c(-c2c(Cl)nc3ncnn3c2NC2CC3CCC2C3)c1 (centres unmarked) [Compound I-3]
[1]
  MIC (Minimum Inhibitory Concentration) PYRIOR: 12.5 µg/mL (≈ 29.4 µM)
Rhizoctonia solani
  Rating (inhibition of mycelial growth): 5
Alternaria solani
  MIC (Minimum Inhibitory Concentration) ALTEBO: 0.78 µg/mL (≈ 1.83 µM)
Botrytis cinerea
  MIC (Minimum Inhibitory Concentration) BOTRCI: 25 µg/mL (≈ 58.7 µM)
Cochliobulus sativus
  MIC (Minimum Inhibitory Concentration) COCHSA: 6.25 µg/mL (≈ 14.7 µM)

## CCN(CC)c1c(-c2cc(F)ccc2C(F)(F)F)c(Cl)nc2ncnn12 [Compound I-4, N-[5-chloro-6-(5-fluoro-2-trifluoromethyl-phenyl)-[1,2,4]triazolo[1,5-α]pyrimidin-7-yl]-N,N-diethyl-amine]
[1]
  MIC (Minimum Inhibitory Concentration) PYRIOR: 0.78 µg/mL (≈ 2.01 µM)
Rhizoctonia solani
  Rating (inhibition of mycelial growth): 7
Alternaria solani
  MIC (Minimum Inhibitory Concentration) ALTEBO: >100 µg/mL
Botrytis cinerea
  MIC (Minimum Inhibitory Concentration) BOTRCI: 25 µg/mL (≈ 64.5 µM)
Cochliobulus sativus
  MIC (Minimum Inhibitory Concentration) COCHSA: 12.5 µg/mL (≈ 32.2 µM)

## CCC(C)Nc1c(-c2cc(F)ccc2C(F)(F)F)c(Cl)nc2ncnn12 (stereo not drawn) [Compound I-5, [5-chloro-6-(5-fluoro-2-trifluoromethyl-phenyl)-[1,2,4]triazolo[1,5-α]pyrimidin-7-yl]-N-(1-methyl-propyl)-amine]
[1]
  MIC (Minimum Inhibitory Concentration) PYRIOR: 0.78 µg/mL (≈ 2.01 µM)
Rhizoctonia solani
  Rating (inhibition of mycelial growth): 7
Alternaria solani
  MIC (Minimum Inhibitory Concentration) ALTEBO: 6.25 µg/mL (≈ 16.1 µM)
Botrytis cinerea
  MIC (Minimum Inhibitory Concentration) BOTRCI: 12.5 µg/mL (≈ 32.2 µM)
Cochliobulus sativus
  MIC (Minimum Inhibitory Concentration) COCHSA: 12.5 µg/mL (≈ 32.2 µM)

## Fc1ccc(C(F)(F)F)c(-c2c(Cl)nc3ncnn3c2NCC(F)(F)F)c1 [Compound I-6]
Rhizoctonia solani
  Rating (inhibition of mycelial growth): 7

## Nc1c(-c2cc(F)ccc2C(F)(F)F)c(Cl)nc2ncnn12 [Compound I-7]
Rhizoctonia solani
  Rating (inhibition of mycelial growth): 0

## CC1CCN(c2c(-c3cc(F)ccc3C(F)(F)F)c(Cl)nc3ncnn23)CC1 [Example 5, 5-Chloro-6-(5-fluoro-2-trifluorome-thylphenyl)-7-(4-methyl-piperidin-1-yl)-[1,2,4]triazolo[1,5-α]pyrimidine]
[1]
  MIC (Minimum Inhibitory Concentration) PYRIOR: <0.05 µg/mL
Rhizoctonia solani
  Rating (inhibition of mycelial growth): 7
Alternaria solani
  MIC (Minimum Inhibitory Concentration) ALTEBO: 0.2 µg/mL (≈ 0.483 µM)
Botrytis cinerea
  MIC (Minimum Inhibitory Concentration) BOTRCI: 0,78 μg/ml
Cochliobulus sativus
  MIC (Minimum Inhibitory Concentration) COCHSA: 0.78 µg/mL (≈ 1.88 µM)
